The record followed here is patent US12447153B2, “HER2 mutation inhibitors” (Array BioPharma Inc., priority 2021, dated 2025).

One assay deals with ErbB2 WT (Homo sapiens (Human), UniProt P04626). Briefly: ErbB Enzyme Assay (HTRF KinEASE-TK), Assay 2. The format is biochemical. To be noted: ErbB2 WT enzyme. On the procedure:
(§1) The kinases were incubated with 250 nM TK-substrate biotin (CisBio, part of cat #62TKOPEC) at 1 mM ATP along with test compounds in a buffer consisting of 25 mM HEPES, pH 7.4, 10 mM MgCl2, 0.01% Triton X-100, and 2% DMSO in a volume of 8 μL. […] After 30-minute incubation at 22° C., the reaction was quenched by adding 8 μL of quench solution containing 62.5 nM Sa-XL665 and 0.25×TK-Ab-Cryptate in HTRF detection buffer (all from CisBio, part of cat #62TKOPEC).

For another assay, the target named is EGFR (Homo sapiens (Human), UniProt P00533). Nature of the assay: ErbB Enzyme Assay (HTRF KinEASE-TK), Assay 3. In kind it is biochemical. Here is the method:
as §1, with “#62TKOPEC). […] A 4-parameter logistic curve was fit to the POC values as a function of the concentration of compound, and the IC50 value was the point where the best-fit curve crossed 50 POC.” for “#62TKOPEC).”

The target of a further assay is EGFR wild type (EGFR WT) (Homo sapiens (Human), UniProt P00533). Briefly: Cellular Phosphorylation Assay, Assay 5 (EGF-stimulated EGFR phosphorylation, NIH 3T3 cells). In kind it is cell-based. On the procedure: (§2) NIH 3T3 cells were engineered to express ErbB2 with Exon 20 YVMA insertion (HER2-YVMA (SEQ ID NO: 2); Assay 4) or EGFR wild type (EGFR WT; Assay 5) with constructs obtained from GenScript and grown in DMEM supplemented with 10% fetal bovine serum and 15 μg/ml blasticidin. […] Serially diluted compounds were added to the plates for 1 hour at 37° C./5% CO2. EGFR WT cells were stimulated with 100 ng/ml rEGF for an additional 10 minutes at 37° C./5% CO2.
Sequence of EGFR wild type (EGFR WT) (P00533 25-1210): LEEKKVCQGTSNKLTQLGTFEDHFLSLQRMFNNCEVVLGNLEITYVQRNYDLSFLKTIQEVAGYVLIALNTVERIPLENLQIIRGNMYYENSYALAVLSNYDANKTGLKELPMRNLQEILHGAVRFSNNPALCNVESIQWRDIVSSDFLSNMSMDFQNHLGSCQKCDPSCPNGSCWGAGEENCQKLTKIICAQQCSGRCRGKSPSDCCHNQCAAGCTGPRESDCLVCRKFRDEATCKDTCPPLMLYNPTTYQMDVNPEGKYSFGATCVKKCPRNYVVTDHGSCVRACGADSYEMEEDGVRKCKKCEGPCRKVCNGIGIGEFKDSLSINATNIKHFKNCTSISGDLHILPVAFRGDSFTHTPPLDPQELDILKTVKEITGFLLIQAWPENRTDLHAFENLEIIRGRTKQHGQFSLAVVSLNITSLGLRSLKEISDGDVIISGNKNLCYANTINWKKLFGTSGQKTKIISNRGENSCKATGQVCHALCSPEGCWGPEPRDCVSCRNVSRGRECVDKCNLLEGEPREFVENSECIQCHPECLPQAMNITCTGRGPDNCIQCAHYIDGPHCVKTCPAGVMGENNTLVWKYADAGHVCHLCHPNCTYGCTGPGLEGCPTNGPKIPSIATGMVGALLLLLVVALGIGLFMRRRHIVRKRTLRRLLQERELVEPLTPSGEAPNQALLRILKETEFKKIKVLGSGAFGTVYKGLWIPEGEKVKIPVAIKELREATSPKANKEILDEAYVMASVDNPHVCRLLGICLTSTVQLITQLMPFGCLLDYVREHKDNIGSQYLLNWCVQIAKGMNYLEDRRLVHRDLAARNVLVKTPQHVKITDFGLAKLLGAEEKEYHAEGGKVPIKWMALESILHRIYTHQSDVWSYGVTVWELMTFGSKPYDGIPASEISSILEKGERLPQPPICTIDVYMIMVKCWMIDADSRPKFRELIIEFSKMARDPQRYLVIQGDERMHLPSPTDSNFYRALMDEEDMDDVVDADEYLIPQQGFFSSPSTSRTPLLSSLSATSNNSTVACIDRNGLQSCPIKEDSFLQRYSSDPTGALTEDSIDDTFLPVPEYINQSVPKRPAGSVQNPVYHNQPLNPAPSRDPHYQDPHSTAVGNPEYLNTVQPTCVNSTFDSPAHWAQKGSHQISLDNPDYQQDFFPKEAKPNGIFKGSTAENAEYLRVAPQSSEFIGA
(§3) After compound incubation, medium was removed from the cells, which were then fixed in 3.7% formaldehyde in PBS at room temperature for 20 minutes. Following a wash with PBS, cells were permeabilized with 100% methanol at room temperature for 10 minutes. Cells were then washed with PBS/0.05% Tween-20 and blocked with Odyssey blocking buffer (LI-COR Biosciences) for at least 1 hour at room temperature. Antibodies to phosphorylated ErbB2 (Y1196, Cell Signaling #6942) or phosphorylated EGFR (Y1068, Cell Signaling #3777) and GAPDH (Millipore #MAB374) were added to the cells in blocking buffer containing 0.05% azide and incubated overnight at 4° C. After washing with PBS/0.05% Tween-20, the cells were incubated with fluorescently labeled secondary anti-rabbit antibody (LiCOR, IRDye 800CW #926-32211) and anti-mouse antibody (Molecular Probes, Alexa Fluor 680 #A21058) for 1 hour at room temperature in the dark. Cells were then washed and analyzed for fluorescence at both wavelengths using the Odyssey Infrared Imaging System (LI-COR Biosciences). Phosphorylated ErbB2 and EGFR signal was normalized to GAPDH signal to generate curves and calculate IC50 values.

The target of assay [1] is ErbB2 with Exon 20 YVMA insertion (HER2-YVMA) (Homo sapiens (Human), UniProt P04626, INS775YVMA). Briefly: Cellular Phosphorylation Assay, Assay 4 (constitutive ErbB2 phosphorylation, NIH 3T3 cells). In kind it is cell-based. To be noted: ErbB2 YVMA phosphorylation. Here is the method: as §2, §3
Sequence of ErbB2 with Exon 20 YVMA insertion (HER2-YVMA) (P04626 other isoform, or with tags, fused parts or gaps ins YVMA behind 775): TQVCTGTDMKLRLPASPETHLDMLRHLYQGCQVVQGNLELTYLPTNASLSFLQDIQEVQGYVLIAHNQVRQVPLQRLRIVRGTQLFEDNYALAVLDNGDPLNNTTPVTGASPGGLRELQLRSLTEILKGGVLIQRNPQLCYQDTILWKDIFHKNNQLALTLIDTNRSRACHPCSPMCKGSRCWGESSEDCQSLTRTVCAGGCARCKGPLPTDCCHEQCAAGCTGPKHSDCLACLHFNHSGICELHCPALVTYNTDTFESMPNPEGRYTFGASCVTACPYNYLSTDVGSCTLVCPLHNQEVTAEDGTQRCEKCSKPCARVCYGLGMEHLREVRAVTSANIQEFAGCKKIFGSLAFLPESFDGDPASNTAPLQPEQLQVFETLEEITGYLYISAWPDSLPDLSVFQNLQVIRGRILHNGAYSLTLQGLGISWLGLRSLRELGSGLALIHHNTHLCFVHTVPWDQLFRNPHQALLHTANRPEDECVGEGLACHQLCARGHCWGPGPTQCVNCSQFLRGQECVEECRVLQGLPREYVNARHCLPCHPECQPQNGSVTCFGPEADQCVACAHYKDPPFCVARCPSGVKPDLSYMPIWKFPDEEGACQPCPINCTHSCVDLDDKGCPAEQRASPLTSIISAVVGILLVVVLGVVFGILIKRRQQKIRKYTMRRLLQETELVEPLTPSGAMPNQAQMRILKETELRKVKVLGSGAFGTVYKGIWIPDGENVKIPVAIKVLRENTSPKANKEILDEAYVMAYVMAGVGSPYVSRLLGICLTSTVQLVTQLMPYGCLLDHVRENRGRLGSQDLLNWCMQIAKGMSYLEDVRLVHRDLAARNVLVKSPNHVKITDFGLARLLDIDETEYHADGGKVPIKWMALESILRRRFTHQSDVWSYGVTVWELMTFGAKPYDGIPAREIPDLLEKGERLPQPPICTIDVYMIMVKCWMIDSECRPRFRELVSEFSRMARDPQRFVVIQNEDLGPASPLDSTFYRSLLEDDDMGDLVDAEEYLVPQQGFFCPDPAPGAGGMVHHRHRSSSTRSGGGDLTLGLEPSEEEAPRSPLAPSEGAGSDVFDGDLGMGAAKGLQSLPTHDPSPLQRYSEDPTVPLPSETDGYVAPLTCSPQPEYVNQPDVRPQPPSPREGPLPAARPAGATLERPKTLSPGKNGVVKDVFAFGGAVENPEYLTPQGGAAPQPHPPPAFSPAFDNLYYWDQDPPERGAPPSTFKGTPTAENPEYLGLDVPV
Setting [2] is: EGF-stimulated EGFR WT phosphorylation.
Setting [3] is: cellular EGFR WT phosphorylation, EGF-stimulated.

Usually pIC50 stands for −log10 of the IC50, conventionally taken in molar units. A high value points to a low IC50.

pIC50: −log10 of the molar value. A value given as a limit tells only on which side of the number the result lay.

Sequence of ErbB2 WT (P04626 23-1255): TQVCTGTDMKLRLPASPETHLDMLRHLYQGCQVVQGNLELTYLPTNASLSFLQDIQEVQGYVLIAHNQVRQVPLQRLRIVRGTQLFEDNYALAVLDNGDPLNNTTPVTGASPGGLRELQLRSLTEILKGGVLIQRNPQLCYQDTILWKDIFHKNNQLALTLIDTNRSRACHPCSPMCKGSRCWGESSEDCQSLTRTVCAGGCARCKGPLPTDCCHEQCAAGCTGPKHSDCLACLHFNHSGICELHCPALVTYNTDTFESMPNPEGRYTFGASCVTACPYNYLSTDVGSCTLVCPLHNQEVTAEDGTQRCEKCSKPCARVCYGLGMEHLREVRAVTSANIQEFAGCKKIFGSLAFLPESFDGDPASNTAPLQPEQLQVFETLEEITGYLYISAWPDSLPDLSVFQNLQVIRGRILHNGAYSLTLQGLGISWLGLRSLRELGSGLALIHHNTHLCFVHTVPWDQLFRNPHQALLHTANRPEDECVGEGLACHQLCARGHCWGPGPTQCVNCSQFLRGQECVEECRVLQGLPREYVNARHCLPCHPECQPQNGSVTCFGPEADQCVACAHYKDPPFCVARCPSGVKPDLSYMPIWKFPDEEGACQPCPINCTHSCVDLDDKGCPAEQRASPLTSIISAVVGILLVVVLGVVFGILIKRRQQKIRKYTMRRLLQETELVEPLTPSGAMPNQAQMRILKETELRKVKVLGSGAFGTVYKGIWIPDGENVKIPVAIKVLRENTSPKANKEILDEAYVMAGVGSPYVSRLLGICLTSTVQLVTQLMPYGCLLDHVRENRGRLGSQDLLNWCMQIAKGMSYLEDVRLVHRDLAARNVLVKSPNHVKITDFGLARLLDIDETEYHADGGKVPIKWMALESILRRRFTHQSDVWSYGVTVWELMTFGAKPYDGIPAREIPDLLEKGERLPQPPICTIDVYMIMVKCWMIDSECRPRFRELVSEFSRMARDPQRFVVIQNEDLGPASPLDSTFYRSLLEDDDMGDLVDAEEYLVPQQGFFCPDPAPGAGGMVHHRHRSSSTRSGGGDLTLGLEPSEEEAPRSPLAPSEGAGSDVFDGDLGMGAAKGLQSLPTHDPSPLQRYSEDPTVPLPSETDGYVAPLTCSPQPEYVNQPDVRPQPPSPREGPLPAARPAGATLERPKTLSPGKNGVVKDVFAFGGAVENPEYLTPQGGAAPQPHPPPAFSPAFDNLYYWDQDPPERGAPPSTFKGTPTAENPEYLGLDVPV
Sequence of EGFR (P00533 25-1210): as the sequence (P00533 25-1210) above

As to `C=CC(=O)N1CCC(Oc2ccc3ncnc(Nc4ccc(Oc5ccc6sc(C)nc6c5)c(Cl)c4F)c3n2)CC1` [Example 16, 1-(4-((4-((3-chloro-2-fluoro-4-((2-methylbenzo[d]thiazol-5-yl)oxy)phenyl)amino)pyrido[3,2-d]pyrimidin-6-yl)oxy)piperidin-1-yl)prop-2-en-1-one], the results for the negative logarithm of the IC50 (pIC50) at ErbB2 WT and against EGFR (EGFR enzyme) were 5.00 and at most 5.00, respectively.
Turning to `C=CC(=O)N1CC[C@H]2CN(c3ccc4ncnc(Nc5ccc(Oc6ccc7c(c6)ncn7C)c(C)c5)c4n3)C[C@H]21` (racemic) [Example 104, rac-1-((3aR,6aR)-5-(4-((3-methyl-4-((1-methyl-1H-benzo[d]imidazol-5-yl)oxy)phenyl)amino)pyrido[3,2-d]pyrimidin-6-yl)hexahydropyrrolo[3,4-b]pyrrol-1(2H)-yl)prop-2-en-1-one], the values for the pIC50 on EGFR (EGFR enzyme) and against EGFR wild type (EGFR WT) (setting [2]) were at most 5.00 and at most 5.30, respectively.
Regarding `C=CC(=O)N1CCN(c2ccc3ncnc(Nc4ccc(Oc5ccn6ncnc6c5)c(C)c4F)c3n2)C[C@@H]1CC` [Example 269], the pIC50 was 5.09 against EGFR (EGFR enzyme assay) and at most 5.30 at EGFR wild type (EGFR WT) (setting [3]).
Consider `C=CC(=O)N1C[C@H]2CC[C@@H]1C[C@H]2c1ccc2ncnc(Nc3cc(C)c(Oc4ccn5ncnc5c4)cc3F)c2n1` [Example 402], for which the values for the pIC50 against EGFR (EGFR enzyme assay) and against EGFR wild type (EGFR WT) (setting [3]) were 5.31 and at most 5.30, respectively.
For the molecule `CNC(=O)/C=C/c1ccc2ncnc(Nc3ccc(Oc4ccc5c(c4)ncn5C)c(C)c3)c2n1` [Example 22, (E)-N-methyl-3-(4-((3-methyl-4-((1-methyl-1H-benzo[d]imidazol-5-yl)oxy)phenyl)amino)pyrido[3,2-d]pyrimidin-6-yl)acrylamide], the pIC50 against ErbB2 WT is 6.78; on EGFR (EGFR enzyme), at most 5.00; in assay [1], 7.09.
On to `C=CC(=O)N1CCN(c2ccc3ncnc(Nc4ccc(Oc5ccn6ncnc6c5)c(C)c4F)c3n2)C[C@H]1CC` [Example 274], for which the pIC50 was 5.63 on EGFR (EGFR enzyme assay) and 6.17 against EGFR wild type (EGFR WT) (setting [3]).
Take `C=CC(=O)N1[C@H](C)CN(c2ccc3ncnc(Nc4ccc(Oc5ccn6ncnc6c5)c(C)c4F)c3n2)C[C@@H]1C` [Example 264]: the negative-log IC50 (pIC50) against EGFR (EGFR enzyme assay) was 5.18; against EGFR wild type (EGFR WT) (setting [3]) it was 5.34.
On the same counts, the results for `C=CC(=O)N1CC2(C1)CN(c1ccc3ncnc(Nc4cc(Cl)c(Oc5ccn6ncnc6c5)cc4F)c3n1)C2` [Example 342] are at most 5.00 and at most 5.30.
Regarding `C=CC(=O)N1C2COCC1CC(c1ccc3ncnc(Nc4ccc(Oc5ccc6c(c5)ncn6C)c(C)c4F)c3n1)C2` (centres unmarked) [Example 161, 1-(7-(4-((2-fluoro-3-methyl-4-((1-methyl-1H-benzo[d]imidazol-5-yl)oxy)phenyl)amino)pyrido[3,2-d]pyrimidin-6-yl)-3-oxa-9-azabicyclo[3.3.1]nonan-9-yl)prop-2-en-1-one], the figures for the pIC50 at ErbB2 WT, at EGFR (EGFR enzyme) and on EGFR wild type (EGFR WT) (setting [2]) were 7.70, 6.24 and 6.43, respectively.
For `C=CC(=O)N1CCC(Oc2ccc3ncnc(Nc4ccc(Oc5cnc6cn(C)nc6c5)c(C)c4F)c3n2)CC1` [Example 58, 1-(4-((4-((2-fluoro-3-methyl-4-((2-methyl-2H-pyrazolo[4,3-b]pyridin-6-yl)oxy)phenyl)amino)pyrido[3,2-d]pyrimidin-6-yl)oxy)piperidin-1-yl)prop-2-en-1-one], the pIC50 on EGFR (EGFR enzyme) was at most 5.00; at EGFR wild type (EGFR WT) (setting [2]), 5.65.
On to `C=CC(=O)N1CCC12CN(c1ccc3ncnc(Nc4ccc(Oc5ccn6ncnc6c5)c(C)c4F)c3n1)C2` [Example 275], for which the values for the pIC50 against EGFR (EGFR enzyme assay) and on EGFR wild type (EGFR WT) (setting [3]) were 6.05 and 6.28, respectively.
As for `C=CC(=O)N1C[C@H]2CC[C@@H]1C[C@@H]2c1ccc2ncnc(Nc3cc(C)c(Oc4ccn5ncnc5c4)cc3F)c2n1` (racemic) [Example 216, rac-1-((1R,4S,5S)-5-(4-((4-([1,2,4]triazolo[1,5-a]pyridin-7-yloxy)-2-fluoro-5-methylphenyl)amino)pyrido[3,2-d]pyrimidin-6-yl)-2-azabicyclo[2.2.2]octan-2-yl)prop-2-en-1-one], the results for the pIC50 against EGFR (EGFR enzyme) and against EGFR wild type (EGFR WT) (setting [2]) were 5.30 and at most 5.30, respectively.
For `C=CC(=O)N1C[C@H]2CC[C@@H]1[C@H](c1ccc3ncnc(Nc4cc(C)c(Oc5ccn6ncnc6c5)cc4F)c3n1)C2` [Example 395], the negative logarithm of the IC50 (pIC50) at EGFR (EGFR enzyme assay) is at most 5.00; against EGFR wild type (EGFR WT) (setting [3]) it was at most 5.30.
Turning to `C=CC(=O)N1CCC(Oc2ccc3ncnc(Nc4ccc(Oc5ccc6sc(C)nc6c5)c(C)c4)c3n2)CC1` [Example 7, 1-(4-((4-((3-methyl-4-((2-methylbenzo[d]thiazol-5-yl)oxy)phenyl)amino)pyrido[3,2-d]pyrimidin-6-yl)oxy)piperidin-1-yl)prop-2-en-1-one], the pIC50 on ErbB2 WT is 5.68; at EGFR (EGFR enzyme) it was at most 5.00.
With `C=CC(=O)N1CC[C@@H]2CN(c3ccc4ncnc(Nc5ccc(Oc6ccc7c(c6)ncn7C)c(C)c5)c4n3)C[C@@H]21` [Example 111, 1-((3aR,6aR)-5-(4-((3-methyl-4-((1-methyl-1H-benzo[d]imidazol-5-yl)oxy)phenyl)amino)pyrido[3,2-d]pyrimidin-6-yl)hexahydropyrrolo[3,4-b]pyrrol-1(2H)-yl)prop-2-en-1-one], the pIC50 is at most 5.00 against EGFR (EGFR enzyme) and at most 5.30 on EGFR wild type (EGFR WT) (setting [2]).
On to `C=CC(=O)N1CC[C@H]2CN(c3ccc4ncnc(Nc5ccc(Oc6ccc7c(c6)ncn7C)c(C)c5)c4n3)C[C@H]21` [Example 117, 1-((3aS,6aS)-5-(4-((3-methyl-4-((1-methyl-1H-benzo[d]imidazol-5-yl)oxy)phenyl)amino)pyrido[3,2-d]pyrimidin-6-yl)hexahydropyrrolo[3,4-b]pyrrol-1(2H)-yl)prop-2-en-1-one], for which the pIC50 against EGFR (EGFR enzyme) is at most 5.00; against EGFR wild type (EGFR WT) (setting [2]) it was at most 5.30.
Consider `CC#CC(=O)N1CCN(c2ccc3ncnc(Nc4ccc(Oc5ccn6ncnc6c5)c(C)c4F)c3n2)C[C@H]1C` [Example 184, (R)-1-(4-(4-((4-([1,2,4]triazolo[1,5-a]pyridin-7-yloxy)-2-fluoro-3-methylphenyl)amino)pyrido[3,2-d]pyrimidin-6-yl)-2-methylpiperazin-1-yl)but-2-yn-1-one], for which the pIC50 against EGFR (EGFR enzyme) is at most 5.00; at EGFR wild type (EGFR WT) (setting [2]), at most 5.30.
For `C=CC(=O)N1C[C@H]2CC[C@@H]1[C@@H](c1ccc3ncnc(Nc4cc(C)c(Oc5ccn6ncnc6c5)cc4F)c3n1)C2` [Example 396], the pIC50 is 5.39 against EGFR (EGFR enzyme assay) and at most 5.30 on EGFR wild type (EGFR WT) (setting [3]).
For `C=CC(=O)N1CC[C@H]2CN(c3ccc4ncnc(Nc5ccc(Oc6ccn7ncnc7c6)c(C)c5F)c4n3)C[C@H]21` [Example 50, 1-((3aS,6aS)-5-(4-((4-([1,2,4]triazolo[1,5-a]pyridin-7-yloxy)-2-fluoro-3-methylphenyl)amino)pyrido[3,2-d]pyrimidin-6-yl)hexahydropyrrolo[3,4-b]pyrrol-1(2H)-yl)prop-2-en-1-one], the figures for the negative-log IC50 (pIC50) against EGFR (EGFR enzyme) and against EGFR wild type (EGFR WT) (setting [2]) were at most 5.00 and 5.49, respectively.
On the same counts, the results for `C=CC(=O)N1CC[C@@H]2CN(c3ccc4ncnc(Nc5ccc(Oc6ccn7ncnc7c6)c(C)c5F)c4n3)C[C@@H]21` [Example 71, 1-((3aR,6aR)-5-(4-((4-([1,2,4]triazolo[1,5-a]pyridin-7-yloxy)-2-fluoro-3-methylphenyl)amino)pyrido[3,2-d]pyrimidin-6-yl)hexahydropyrrolo[3,4-b]pyrrol-1(2H)-yl)prop-2-en-1-one] are at most 5.00 and at most 5.30.
On to `C=CC(=O)N1CCC(Oc2ccc3ncnc(Nc4ccc(Oc5ccc6sc(C)nc6c5)c(C)c4F)c3n2)CC1` [Example 10, 1-(4-((4-((2-fluoro-3-methyl-4-((2-methylbenzo[d]thiazol-5-yl)oxy)phenyl)amino)pyrido[3,2-d]pyrimidin-6-yl)oxy)piperidin-1-yl)prop-2-en-1-one], for which the pIC50 is 5.62 against ErbB2 WT and at most 5.00 on EGFR (EGFR enzyme).
